The term IC50 denotes the concentration at which inhibition is half-maximal. A low value points to higher potency. One may read the EC50 as the concentration giving half of the maximal effect. One may read the CC50 as the concentration that lowers cell viability or growth by half. Low values mean greater toxicity to the cells, high ones lower toxicity to the cells. Usually half-life stands for how long it takes for the measured level to halve.

Series [1] is described as follows: Induction of HIV1 NL4-3 nucleocapsid protein disassembly expressed in expressed in Escherichia coli BL21 (DE3) using 5'-end fluorescein labeled (TG)25 oligonucleotide after 2 hrs by fluorescence assay. Further details: species or system Human immunodeficiency virus 1.
Series [2] concerns Human immunodeficiency virus 1. As to the kind of experiment: Antiviral activity against HIV1 infected in human C8166 cells assessed as inhibition of viral replication after 2 days by luciferase assay. Conditions: Human immunodeficiency virus 1, C8166, 48 h. The class given is functional, organism-based.
Series [3] in a line: Inhibition of HIV1 NL4-3 nucleocapsid protein assembly expressed in expressed in Escherichia coli BL21 (DE3) using 5'-end fluorescein labeled (TG)25 oligonucleotide after 2 hrs by fluorescence assay. Further details: species or system Human immunodeficiency virus 1.
The nature of series [4]: Cytotoxicity against human C8166 cells. It counts as cell-based.
Another series has as its target Cytochrome P450 3A4 (Homo sapiens, UniProt P08684). Briefly: Inhibition of CYP3A4 (unknown origin). It counts as ADME.
Series [5] is described as follows: Permeability across human Caco2 cells. The settings on record: Caco-2, read-out: permeability. The class given is ADME, cell-based. A general note: Caco-2 cells form a polarised layer with tight junctions and transporters.
Series [6] in a line: Half life in human liver microsomes. It counts as ADME, Microsome.
The target of the next series is Cytochrome P450 2D6 (Homo sapiens, UniProt P10635). Briefly: Inhibition of CYP2D6 (unknown origin). The class given is ADME.
Series [7] in a line: Half life in rat liver microsomes. It counts as ADME, Microsome. (In general: Microsomes from liver hold many membrane-bound enzymes, among them those of drug oxidation.)
The nature of series [8]: Volume of distribution at steady state in iv dosed rat. The class given is ADME, organism-based. The settings on record: in vivo, read-out: Vdss.
Series [9] in a line: Half life in iv dosed rat. It counts as ADME, organism-based. The settings on record: in vivo.
In the next series the test system is Rattus norvegicus. As to the kind of experiment: Total clearance in iv dosed rat relative to liver blood perfusion rate. Conditions: in vivo. The class given is ADME, organism-based.

Chain of Cytochrome P450 2D6 (P10635 whole entry): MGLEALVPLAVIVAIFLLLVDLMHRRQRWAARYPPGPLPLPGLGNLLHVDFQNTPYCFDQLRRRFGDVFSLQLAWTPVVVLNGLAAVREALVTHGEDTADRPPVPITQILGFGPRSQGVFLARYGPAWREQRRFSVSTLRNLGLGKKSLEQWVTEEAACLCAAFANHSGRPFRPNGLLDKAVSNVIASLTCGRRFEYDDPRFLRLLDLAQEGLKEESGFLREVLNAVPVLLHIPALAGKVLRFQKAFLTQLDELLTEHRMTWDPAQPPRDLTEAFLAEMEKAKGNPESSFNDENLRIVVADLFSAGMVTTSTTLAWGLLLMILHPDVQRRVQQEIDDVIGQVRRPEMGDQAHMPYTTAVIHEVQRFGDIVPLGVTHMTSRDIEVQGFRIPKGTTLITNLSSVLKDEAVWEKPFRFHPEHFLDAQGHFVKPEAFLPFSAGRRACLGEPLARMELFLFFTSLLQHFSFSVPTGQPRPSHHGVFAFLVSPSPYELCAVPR
Chain of Cytochrome P450 3A4 (P08684 whole entry): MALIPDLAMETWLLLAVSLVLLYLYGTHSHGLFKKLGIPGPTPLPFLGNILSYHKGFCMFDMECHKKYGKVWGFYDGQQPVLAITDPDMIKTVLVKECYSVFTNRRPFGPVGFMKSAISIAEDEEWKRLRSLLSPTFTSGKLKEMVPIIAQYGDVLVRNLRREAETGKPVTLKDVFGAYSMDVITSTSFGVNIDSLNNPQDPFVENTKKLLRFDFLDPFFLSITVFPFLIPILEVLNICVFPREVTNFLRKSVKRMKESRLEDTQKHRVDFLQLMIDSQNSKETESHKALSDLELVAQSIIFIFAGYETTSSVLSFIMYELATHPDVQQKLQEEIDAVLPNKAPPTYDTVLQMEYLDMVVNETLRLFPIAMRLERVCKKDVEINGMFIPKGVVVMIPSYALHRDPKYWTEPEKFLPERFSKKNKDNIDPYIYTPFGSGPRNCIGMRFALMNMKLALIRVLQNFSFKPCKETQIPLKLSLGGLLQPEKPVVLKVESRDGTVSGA

Take `CN1C(=O)C(c2ccccc2)C(=O)N(c2ccccc2)c2cc(C(F)(F)F)ccc21` (stereo not given): the concentration for half-maximal inhibition (IC50) in series [1] came to 680 nM.
Consider `CCN1C(=O)C(c2ccc(-c3cnco3)cc2)C(=O)N(c2ccccc2)c2cc(C(F)(F)F)ccc21` (stereo not given), for which, in [2], the EC50 came out at 1100 nM. The half-maximal inhibitory concentration (IC50) worked out at 760 nM in series [3] and 470 nM in series [1]. In addition, the CC50 in series [4] is more than 7000 nM.
As for `CCN1C(=O)C(c2ccccc2)C(=O)N(c2ccccc2)c2cc(C(F)(F)F)ccc21` (stereo not given), the results for the IC50 in series [3] and in series [1] were 730 nM and 480 nM, respectively.
Take `COc1ccccc1C1C(=O)N(C)c2ccc(C(F)(F)F)cc2N(c2ccccc2)C1=O` (stereo not given): the EC50 in [2] amounted to 2700 nM. Further, in series [3], the midpoint of inhibition, the IC50, lay at 710 nM.
Regarding `COc1cccc(C2C(=O)N(C)c3ccc(C(F)(F)F)cc3N(c3ccccc3)C2=O)c1` (stereo not given), the concentration giving a half-maximal response (EC50) in series [2] amounted to 1200 nM. Besides, in series [3], the IC50 is 550 nM.
The corresponding values for `COc1ccc(C2C(=O)N(C)c3ccc(C(F)(F)F)cc3N(c3ccccc3)C2=O)cc1` (stereo not given) are 3200 nM and 1100 nM.
Consider `CCN1C(=O)C(c2ccc(O)cc2)C(=O)N(c2ccccc2)c2cc(C(F)(F)F)ccc21` (stereo not given), for which, in series [2], the EC50 stood at 1000 nM. Also, the values for the IC50 in series [3] and in series [1] were 400 nM and 180 nM, respectively.
With `CCN1C(=O)C(c2ccc(O)c(OC)c2)C(=O)N(c2ccccc2)c2cc(C(F)(F)F)ccc21` (stereo not given), in series [2], the half-maximal effective concentration (EC50) is 530 nM. In addition, the IC50 is 590 nM in [3] and 110 nM in [1]. The CC50 in series [4] is 42000 nM.
`CCN1C(=O)C(c2ccccc2-c2ccncc2)C(=O)N(c2ccccc2)c2cc(C(F)(F)F)ccc21` (stereo not given): the IC50 in series [3] is more than 7200 nM.
As for `CCN1C(=O)C(c2cccc(-c3ccncc3)c2)C(=O)N(c2ccccc2)c2cc(C(F)(F)F)ccc21` (stereo not given), in series [2], the EC50 amounted to 790 nM. The IC50 turned out to be 530 nM in series [3] and 190 nM in series [1]. Also, in series [4], half-maximal cytotoxicity (CC50) was put at 17000 nM.
As for `CCN1C(=O)C(c2ccc(-c3ccncc3)cc2)C(=O)N(c2ccccc2)c2cc(C(F)(F)F)ccc21` (stereo not given), the EC50 in series [2] came out at 570 nM. Further, the 50% inhibitory concentration (IC50) in series [3] is 390 nM; in [1], 210 nM. In series [4], this molecule gave a CC50 of 15000 nM.
Consider `CCN1C(=O)C(c2cccc(-c3cccnc3)c2)C(=O)N(c2ccccc2)c2cc(C(F)(F)F)ccc21` (stereo not given), for which the concentration for a half-maximal effect (EC50) in series [2] came out at 1000 nM. The molecule further displayed a concentration for half-maximal inhibition (IC50) in series [3] of 480 nM. Moreover, the CC50 in [4] came out at 20000 nM.
For `CCN1C(=O)C(c2cccc(-c3cnn(C)c3)c2)C(=O)N(c2ccccc2)c2cc(C(F)(F)F)ccc21` (stereo not given), the EC50 in series [2] was 710 nM. For the same molecule, the figures for the IC50 in [3] and in [1] were 630 nM and 130 nM, respectively. In series [4], this molecule came in with a CC50 of 20000 nM.
For `CCN1C(=O)C(c2cccc(-c3ccnn3C)c2)C(=O)N(c2ccccc2)c2cc(C(F)(F)F)ccc21` (stereo not given), in that order: 990 nM, 670 nM, 300 nM and 30000 nM.
Take `CCN1C(=O)C(c2ccc(-c3cccnc3)cc2)C(=O)N(c2ccccc2)c2cc(C(F)(F)F)ccc21` (stereo not given): in series [2], the EC50 worked out at 400 nM. The IC50 in series [3] amounted to 400 nM; in [1], 320 nM. The molecule further displayed a CC50 in series [4] of 7000 nM.
On to `CCN1C(=O)C(c2ccc(-c3cnc(OC)nc3)cc2)C(=O)N(c2ccccc2)c2cc(C(F)(F)F)ccc21` (stereo not given), for which the EC50 in series [2] is 620 nM. In addition, the values for the IC50 in [3] and in series [1] were 450 nM and 270 nM, respectively. The CC50 in [4] was more than 20000 nM.
With `CCN1C(=O)C(c2cc(-c3cnn(C)c3)ccc2O)C(=O)N(c2ccccc2)c2cc(C(F)(F)F)ccc21` (stereo not given), the INH on Cytochrome P450 3A4 is 1.7 µM; at Cytochrome P450 2D6, more than 30 µM. The Papp in series [5] came out at 4.3 ×10⁻⁶ cm/s. The EC50 in [2] was found to be 180 nM. In series [1], this molecule had an IC50 of 170 nM. In [6], this molecule gave a half-life of 2.5 h.
Turning to `CCN1C(=O)C(c2ccc(O)c(-c3cnn(C)c3)c2)C(=O)N(c2ccccc2)c2cc(C(F)(F)F)ccc21` (stereo not given), the INH is 5.7 µM at Cytochrome P450 3A4 and more than 30 µM on Cytochrome P450 2D6. Moreover, the Papp in series [5] was less than 0.1 ×10⁻⁶ cm/s. Besides, the concentration for a half-maximal effect (EC50) in series [2] was 190 nM. Also, in series [1], half-maximal inhibition (IC50) was put at 120 nM. The same molecule gave a half-life in [6] of 2 h.
Consider `CCN1C(=O)C(c2cc(-c3cnn(C)c3)c(O)cc2O)C(=O)N(c2ccccc2)c2cc(C(F)(F)F)ccc21` (stereo not given), for which the INH at Cytochrome P450 3A4 was determined as 4.5 µM; at Cytochrome P450 2D6, 13 µM. For the same molecule, in [5], the Papp worked out at 7.7 ×10⁻⁶ cm/s. Besides, the half-life in [7] was 0.183 h; in series [6], 1.85 h. For the same molecule, in series [2], the EC50 came out at 140 nM. In series [1], this molecule gave an IC50 of 100 nM.
Consider `CCN1C(=O)C(c2cc(-c3cn[nH]c3)c(O)cc2O)C(=O)N(c2ccccc2)c2cc(C(F)(F)F)ccc21` (stereo not given), for which the results for the INH on Cytochrome P450 3A4 and on Cytochrome P450 2D6 were 4.8 µM and 8.9 µM, respectively. Besides, the Papp in [5] was less than 0.1 ×10⁻⁶ cm/s. The figures for the half-life in [7] and in series [6] were 0.25 h and more than 5 h, respectively. Besides, in series [2], the concentration giving a half-maximal response (EC50) is 130 nM. In series [1], this molecule gave a 50% inhibitory concentration (IC50) of 50 nM.
Regarding `CCCn1cc(-c2cc(C3C(=O)N(CC)c4ccc(C(F)(F)F)cc4N(c4ccccc4)C3=O)cc(OC)c2O)cn1` (stereo not given), the values for the INH at Cytochrome P450 3A4 and on Cytochrome P450 2D6 were 3.6 µM and more than 30 µM, respectively. Besides, the Vd in series [8] was 15 L/kg. Moreover, in series [5], the Papp came out at 9.9 ×10⁻⁶ cm/s. The half-life in series [7] was 1.12 h; in [9], 4.8 h; in series [6], 1.43 h. Moreover, the CL in the series with Rattus norvegicus is listed as 50%. For the same molecule, the EC50 in series [2] was 70 nM. Further, half-maximal inhibition in [1] (IC50) was put at 160 nM.
Regarding `CCN1C(=O)N(c2ccc(O)c(-c3cnn(C)c3)c2)C(=O)N(c2ccccc2)c2cc(C(F)(F)F)ccc21`, in series [2], the EC50 came out at 240 nM. In addition, inhibition in [1] was half-maximal at 120 nM (IC50).
Regarding `CCN1C(=O)C2(CCc3cc(O)c(-c4cnn(C)c4)cc32)C(=O)N(c2ccccc2)c2cc(C(F)(F)F)ccc21` (stereo not given), the EC50 in [2] was found to be 300 nM. In addition, in series [1], the IC50 worked out at 130 nM.
With `CCN1C(=O)C2(CCc3c2ccc(O)c3-c2cnn(C)c2)C(=O)N(c2ccccc2)c2cc(C(F)(F)F)ccc21` (stereo not given), in [2], the EC50 is 780 nM. This molecule showed an IC50 in series [1] of 200 nM.

Values taken from ChEMBL document CHEMBL2385055, “Optimization of a 1,5-dihydrobenzo[b][1,4]diazepine-2,4-dione series of HIV capsid assembly inhibitors 2: structure-activity relationships (SAR) of the C3-phenyl moiety” (Bioorg Med Chem Lett, 2013).
